Experimental data as given in patent US20250115598A1 (Anaxis Pharma Pty Ltd, priority 2021, published 2025).

Key:
human MLKL (full length) = human MLKL (full length) (Homo sapiens (Human), UniProt Q8NB16); assay: KINOMEscan binding assay, human MLKL (full length); conditions: hMLKL, Table 25; read-out: MLKL (KD)
Procedure, shortened: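 In this assay, compounds displace DNA- or phage-tagged kinase from an immobilized ligand, and eluted kinase is quantified by qPCR.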

[1] = system: U937 human histiocytic leukemia cell line; assay: Cellular assay: inhibition of TSQ induced necroptosis, CellTitre-Glo viability; conditions: Homo sapiens, U-937; U937 cells, 48 hours, TSQ cocktail, Table 26; read-out: Inhibition of TSQ-induced necroptosis (IC50 cell-based assay)
Experimental: Cellular Assay: Screening Compounds for Inhibition of TSQ Induced Necroptosis, 384 Well Plate Format.
• Cell Line ID: U937 human histiocytic leukemia cell line. • Cell Concentration (cells/well): Final cell density is 20000 cells per well. • Cell growth medium: HT-RPMI medium+7.4% Fetal Bovine Serum (FBS). Cells are cultured in Corning 150 cm^2 tissue culture flasks with vented caps at 37° C./5% CO2. • Incubation: Plates were incubated at 37° C./5% CO2 in a humidified incubator for 48 hours following addition of compounds and death stimuli (TSQ cocktail). • Compound concentration: 36 μM starting concentration, 1:3 dilution, 10 point • DMSO final concentration (% v/v): 0.3%. Compounds in TSQ Cocktail (T: TNF; S: Smac Mimetic; Q: Q-VD-OPh) and their Final Concentrations: • hTNF-Fc (100 ng/ml)—produced by standard procedures as shown in Bossen et al., J. Biol. Chem., 2006, 281(20), 13964-13971. • Compound A (500 nM)—Smac mimetic, Tetralogic and SYNthesis med chem • Q-VD-OPh (10 μM)—MP Biomedicals
The cellular assay was carried out according to the following steps: • 1. Each well was prepared by sequential addition of: • a. DMSO (control; columns 1-2 and 23-24) or compound in DMSO—addition was performed using acoustic transfer of nL volumes of stock compound to give final test concentrations of 36, 12, 4, 1.3, 0.44, 0.148, 0.049, 0.016, 0.005 and 0.002 μM. All wells were backfilled with DMSO to a final total volume in the well of 100 nL. • b. Following compound/DMSO addition in step (a), 40 μL of cell suspension (5×10^5 cells/mL) was added to provide a final cell concentration of 20,000 cells per well, and • c. Following cell addition in step (b), 10 μL of 5×TSQ cocktail (except to positive controls; columns 1 and 23) was added to each well. • 2. After 48 hours, plate was removed from the 37° C. incubator and equilibrated to room temperature for 45 minutes. • 3.15 μL of room temperature CellTitre-Glo2™ (Promega™) was added to each well. • 4. Shook plates for 2 minutes (˜600 rpm) and incubated at room temperature for 15 minutes to allow signal to stabilise. • 5. Read luminescence readout on a plate reader.
Percent viability was calculated for each compound according to equation (2):
• Assay involving the TSQ cocktail (T: TNF; S: Smac mimetic; Q: Q-VD-OPh): TSQ treatment ensures that cells specifically undergo necroptotic cell death. TNF activates the TNF receptor, Smac mimetic directs the signal away from proinflammatory signaling and toward the RIPK1/RIPK3-mediated cell death pathways, and Q-VD-OPh ensures that the apoptotic response is blocked leaving only the programmed necrosis response. The compounds' activity (solution in DMSO) tested in this TSQ-induced assay was evaluated by determining the number of viable cells in culture by measuring the amount of ATP present as measured by CelltiterGlo. • Counter screen: In parallel, all compounds were tested for their ability to affect cell viability. The same U937 cells were treated with compound in DMSO without the TSQ cocktail. This counter screen enabled evaluation of off-target effects. In this case, cell viability was measured by CelltiterGlo.

U937 cells = assay: Counter screen: cell viability without the TSQ cocktail (off-target effect); parameters: species or system human; conditions: Homo sapiens, U-937, Table 26, read-out: Off-target effect (IC50 cell-based assay)
Procedure, shortened: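 U937 cells (20000/well, HT-RPMI + 7.4% FBS) treated with compound (10-point 1:3 dilution from 36 μM, 0.3% DMSO) without the TSQ cocktail for 48 h at 37 °C/5% CO2. Viability read as ATP by CellTiter-Glo luminescence, flagging off-target cytotoxicity.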

endogenous MLKL in U937 = endogenous MLKL in U937 (Homo sapiens (Human), UniProt Q8NB16); assay: Degradation assay: endogenous MLKL in U937 (western blot); conditions: U937, 24 h incubation, read-out: Degradation of endogenous MLKL in U937 (DC50 cell-based assay)
Chain of endogenous MLKL in U937 (Q8NB16 whole entry): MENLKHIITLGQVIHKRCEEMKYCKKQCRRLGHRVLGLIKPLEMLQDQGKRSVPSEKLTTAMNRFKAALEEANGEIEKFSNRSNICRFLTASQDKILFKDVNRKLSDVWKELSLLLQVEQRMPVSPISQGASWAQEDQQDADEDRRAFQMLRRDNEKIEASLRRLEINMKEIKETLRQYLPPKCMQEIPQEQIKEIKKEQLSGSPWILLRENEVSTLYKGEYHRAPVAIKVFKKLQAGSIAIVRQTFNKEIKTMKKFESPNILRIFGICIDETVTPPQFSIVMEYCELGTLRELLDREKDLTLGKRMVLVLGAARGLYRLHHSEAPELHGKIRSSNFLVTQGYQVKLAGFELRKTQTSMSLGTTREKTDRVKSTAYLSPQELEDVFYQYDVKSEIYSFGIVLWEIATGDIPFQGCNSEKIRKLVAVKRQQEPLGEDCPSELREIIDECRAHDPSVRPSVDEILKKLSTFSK
Procedure, shortened: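 Western blot band intensity of MLKL, adjusted to GAPDH loading and normalized to DMSO-only wells, gave percent degradation. Compound exposure lasted 24 h at final concentrations of 10–0.016 μM in 1:5 steps, in mouse dermal fibroblasts or human U937 cells.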

Chain of human MLKL (full length) (Q8NB16 whole entry): as above

`Cc1ncsc1-c1ccc(CNC(=O)[C@@H]2C[C@@H](O)CN2C(=O)[C@@H](NC(=O)CCN2CC(n3cc(-c4cnc(N)c5c(-c6ccc(NS(=O)(=O)C(F)F)c(O[C@@H](C)c7ccc(F)cc7)c6)nn(C)c45)cn3)C2)C(C)(C)C)cc1` [Compound 1010, (2S,4R)-1-[(2S)-2-{3-[3-(4-{4-amino-3-[4-(difluoromethanesulfonamido)-3-[(1S)-1-(4-fluorophenyl)ethoxy]phenyl]-1-methyl-1H-pyrazolo[4,3-c]pyridin-7-yl}-1H-pyrazol-1-yl)azetidin-1-yl]propanamido}-3,3-dimethylbutanoyl]-4-hydroxy-N-{[4-(4-methyl-1,3-thiazol-5-yl)phenyl]methyl}pyrrolidine-2-carboxamide] gave a Kd (human MLKL (full length)) of under 10 nM, an IC50 [1] of 1000 to 10000 nM and an IC50 (U937 cells) of over 10000 nM. It also gave a DC50 (endogenous MLKL in U937) of 1000 to 10000 nM.

`Cc1ncsc1-c1ccc(CNC(=O)[C@@H]2C[C@@H](O)CN2C(=O)[C@@H](NC(=O)CCN2CCC(n3cc(-c4cnc(N)c5c(-c6ccc(NS(=O)(=O)C(F)F)c(O[C@@H](C)c7ccc(F)cc7)c6)nn(C)c45)cn3)C2)C(C)(C)C)cc1` (stereo partly drawn) [Compound 1012, (2S,4R)-1-[(2S)-2-{3-[3-(4-{4-amino-3-[4-(difluoromethanesulfonamido)-3-[(1S)-1-(4-fluorophenyl)ethoxy]phenyl]-1-methyl-1H-pyrazolo[4,3-c]pyridin-7-yl}-1H-pyrazol-1-yl)pyrrolidin-1-yl]propanamido}-3,3-dimethylbutanoyl]-4-hydroxy-N-{[4-(4-methyl-1,3-thiazol-5-yl)phenyl]methyl}pyrrolidine-2-carboxamide] showed a Kd (human MLKL (full length)) of under 10 nM, an IC50 [1] of 1000 to 10000 nM and an IC50 (U937 cells) of over 10000 nM. For the same molecule, the DC50 (endogenous MLKL in U937) was 1000 to 10000 nM.

In the case of `Cc1ncsc1-c1ccc(CNC(=O)[C@@H]2C[C@@H](O)CN2C(=O)[C@@H](NC(=O)CN2CCC(n3cc(-c4cnc(N)c5c(-c6ccc(NS(=O)(=O)C(F)F)c(O[C@@H](C)c7ccc(F)cc7)c6)nn(C)c45)cn3)C2)C(C)(C)C)cc1` (stereo partly drawn) [Compound 1011, (2S,4R)-1-[(2S)-2-{2-[3-(4-{4-amino-3-[4-(difluoromethanesulfonamido)-3-[(1S)-1-(4-fluorophenyl)ethoxy]phenyl]-1-methyl-1H-pyrazolo[4,3-c]pyridin-7-yl}-1H-pyrazol-1-yl)pyrrolidin-1-yl]acetamido}-3,3-dimethylbutanoyl]-4-hydroxy-N-{[4-(4-methyl-1,3-thiazol-5-yl)phenyl]methyl}pyrrolidine-2-carboxamide], the IC50 [1] is reported as 1000 to 10000 nM, the IC50 (U937 cells) is reported as over 10000 nM and the DC50 (endogenous MLKL in U937) is reported as 1000 to 10000 nM.

For `Cc1ncsc1-c1ccc(CNC(=O)[C@@H]2C[C@@H](O)CN2C(=O)[C@@H](NC(=O)COCCOCCOCCn2cc(-c3cnc(N)c4c(-c5ccc(NS(=O)(=O)C(F)F)c(O[C@@H](C)c6ccc(F)cc6)c5)nn(C)c34)cn2)C(C)(C)C)cc1` [Compound 1009, (2S,4R)-1-[(2S)-2-[2-(2-{2-[2-(4-{4-amino-3-[4-(difluoromethanesulfonamido)-3-[(1S)-1-(4-fluorophenyl)ethoxy]phenyl]-1-methyl-1H-pyrazolo[4,3-c]pyridin-7-yl}-1H-pyrazol-1-yl)ethoxy]ethoxy}ethoxy)acetamido]-3,3-dimethylbutanoyl]-4-hydroxy-N-{[4-(4-methyl-1,3-thiazol-5-yl)phenyl]methyl}pyrrolidine-2-carboxamide], the Kd (human MLKL (full length)) was under 10 nM, the IC50 [1] was under 1000 nM and the IC50 (U937 cells) was 1000 to 10000 nM. The DC50 (endogenous MLKL in U937) was 1000 to 10000 nM.

Molecule `Cc1ncsc1-c1ccc(CNC(=O)[C@@H]2C[C@@H](O)CN2C(=O)[C@@H](NC(=O)CCN2CCC(n3cc(-c4cnc(N)c5c(-c6ccc(NS(=O)(=O)C(F)F)c(O[C@@H](C)c7ccc(F)cc7)c6)nn(C)c45)cn3)CC2)C(C)(C)C)cc1` [Compound 1017, (2S,4R)-1-[(2S)-2-{3-[4-(4-{4-amino-3-[4-(difluoromethanesulfonamido)-3-[(1S)-1-(4-fluorophenyl)ethoxy]phenyl]-1-methyl-1H-pyrazolo[4,3-c]pyridin-7-yl}-1H-pyrazol-1-yl)piperidin-1-yl]propanamido}-3,3-dimethylbutanoyl]-4-hydroxy-N-{[4-(4-methyl-1,3-thiazol-5-yl)phenyl]methyl}pyrrolidine-2-carboxamide] has a Kd (human MLKL (full length)) of under 10 nM, an IC50 [1] of 1000 to 10000 nM and an IC50 (U937 cells) of over 10000 nM. For the same molecule, the DC50 (endogenous MLKL in U937) was 1000 to 10000 nM.
